Measured values: ChEMBL document CHEMBL1201862, “PubChem BioAssay data set” (2004)
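Compound exposure: 48 hours, 5 concentrations, 96-well plates. GI50 is the concentration that inhibits growth by half.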 Active and inactive are the calls of the source. Rule as the data show it: active = GI50 up to about 1.1 µM and inactive = higher.

How the values were obtained:
Assay in all cases: DTP human tumour cell line panel, 48 h
T47D = system: T47D
SF-268 = system: SF-268
SK-MEL-2 = system: SK-MEL-2
SK-OV-3 = system: SK-OV-3
NCI-H23 = system: NCI-H23
OVCAR-3 = system: OVCAR-3
HCT-116 = system: HCT-116
EKVX = system: EKVX
MOLT-4 = system: MOLT-4
SK-MEL-5 = system: SK-MEL-5
SF-539 = system: SF-539
MDA-N = system: MDA-N
PC-3 = system: PC-3
HOP-62 = system: HOP-62
U-251 = system: U-251
SW-620 = system: SW-620
SNB-75 = system: SNB-75
HL-60 = system: HL-60
NCI/ADR-RES = system: NCI/ADR-RES
SN12C = system: SN12C
A498 = system: A498
OVCAR-8 = system: OVCAR-8
COLO 205 = system: COLO 205
UACC-62 = system: UACC-62
IGROV-1 = system: IGROV-1
OVCAR-5 = system: OVCAR-5
OVCAR-4 = system: OVCAR-4
A549 = system: A549
NCI-H460 = system: NCI-H460
HCT-15 = system: HCT-15
M14 = system: M14
DU-145 = system: DU-145
UACC-257 = system: UACC-257
LOX IMVI = system: LOX IMVI
MCF7 = system: MCF7
RXF 393 = system: RXF 393
SNB-19 = system: SNB-19
Malme-3M = system: Malme-3M
MDA-MB-435 = system: MDA-MB-435
UO-31 = system: UO-31
SF-295 = system: SF-295
HCC 2998 = system: HCC 2998
HOP-92 = system: HOP-92
SK-MEL-28 = system: SK-MEL-28
ACHN = system: ACHN
MDA-MB-231 = system: MDA-MB-231
HT-29 = system: HT-29
NCI-H522 = system: NCI-H522
Hs-578T = system: Hs-578T
BT-549 = system: BT-549
KM12 = system: KM12
CAKI-1 = system: CAKI-1
K562 = system: K562
786-0 = system: 786-0
TK-10 = system: TK-10
NCI-H226 = system: NCI-H226
RPMI-8226 = system: RPMI-8226
CCRF-CEM = system: CCRF-CEM

S=c1scc(-c2ccc(Cl)cc2)n1OC1CCCC1 was tested, and the GI50 (T47D) was 12.9 µM (inactive), the GI50 (SF-268) was 72.9 µM (inactive) and the GI50 (SK-MEL-2) was 18.3 µM (inactive). For the same molecule, the GI50 (SK-OV-3) was 36.2 µM (inactive), the GI50 (NCI-H23) was 16.9 µM (inactive) and the GI50 (OVCAR-3) was 16.7 µM (inactive). For the same molecule, the GI50 (HCT-116) was 22.2 µM (inactive), the GI50 (EKVX) was 28.1 µM (inactive) and the GI50 (MOLT-4) was 15.9 µM (inactive). The GI50 (SK-MEL-5) was 11.4 µM (inactive), the GI50 (SF-539) was 10.8 µM (inactive) and the GI50 (MDA-N) was 21.6 µM (inactive). The GI50 (PC-3) was 29.9 µM (inactive), the GI50 (HOP-62) was 36.7 µM (inactive) and the GI50 (U-251) was 15.6 µM (inactive). For the same molecule, the GI50 (SW-620) was 32.7 µM (inactive), the GI50 (SNB-75) was 36.5 µM (inactive) and the GI50 (HL-60) was 22 µM (inactive). The GI50 (NCI/ADR-RES) was 23.8 µM (inactive), the GI50 (SN12C) was 35.8 µM (inactive) and the GI50 (A498) was 26.1 µM (inactive). The GI50 (OVCAR-8) was 33.8 µM (inactive), the GI50 (COLO 205) was 12 µM (inactive) and the GI50 (UACC-62) was 24.4 µM (inactive). For the same molecule, the GI50 (IGROV-1) was 48.8 µM (inactive), the GI50 (OVCAR-5) was 52.2 µM (inactive) and the GI50 (OVCAR-4) was 16.7 µM (inactive). For the same molecule, the GI50 (A549) was 26.2 µM (inactive), the GI50 (NCI-H460) was 25.2 µM (inactive) and the GI50 (HCT-15) was 21.8 µM. The GI50 (M14) was 36.9 µM (inactive), the GI50 (DU-145) was 29.4 µM (inactive) and the GI50 (UACC-257) was 27 µM (inactive). For the same molecule, the GI50 (LOX IMVI) was 23.6 µM (inactive), the GI50 (MCF7) was 27 µM (inactive) and the GI50 (RXF 393) was 17.1 µM (inactive). For the same molecule, the GI50 (SNB-19) was 69 µM (inactive), the GI50 (Malme-3M) was 56.2 µM (inactive) and the GI50 (MDA-MB-435) was 15.7 µM (inactive). The GI50 (UO-31) was 40.6 µM (inactive), the GI50 (SF-295) was 30.5 µM (inactive) and the GI50 (HCC 2998) was 23.9 µM (inactive). The GI50 (HOP-92) was 21.3 µM (inactive), the GI50 (SK-MEL-28) was 72.4 µM (inactive) and the GI50 (ACHN) was 25.5 µM (inactive). For the same molecule, the GI50 (MDA-MB-231) was 39.5 µM (inactive), the GI50 (HT-29) was 20.9 µM (inactive) and the GI50 (NCI-H522) was 16.4 µM (inactive). For the same molecule, the GI50 (Hs-578T) was 82.6 µM (inactive), the GI50 (BT-549) was 30.2 µM (inactive) and the GI50 (KM12) was 18.5 µM (inactive). The GI50 (CAKI-1) was 47.2 µM (inactive), the GI50 (K562) was 16.1 µM (inactive) and the GI50 (786-0) was 37 µM (inactive). For the same molecule, the GI50 (TK-10) was 72.8 µM (inactive).
For CC1CC(=O)Nc2ccc(/N=N/N(C)C)cc2N1C=O (configuration not stated), the GI50 (T47D) was > 100 µM (inactive), the GI50 (SF-268) was > 100 µM (inactive) and the GI50 (SK-MEL-2) was > 100 µM (inactive). The GI50 (NCI-H226) was > 100 µM (inactive), the GI50 (SK-OV-3) was > 100 µM (inactive) and the GI50 (NCI-H23) was > 100 µM (inactive). For the same molecule, the GI50 (OVCAR-3) was > 100 µM (inactive), the GI50 (HCT-116) was > 100 µM (inactive) and the GI50 (EKVX) was > 100 µM (inactive). For the same molecule, the GI50 (MOLT-4) was > 100 µM (inactive), the GI50 (SK-MEL-5) was > 100 µM (inactive) and the GI50 (MDA-N) was > 100 µM (inactive). For the same molecule, the GI50 (PC-3) was > 100 µM (inactive), the GI50 (HOP-62) was > 100 µM (inactive) and the GI50 (U-251) was > 100 µM (inactive). For the same molecule, the GI50 (SW-620) was > 100 µM (inactive), the GI50 (SNB-75) was > 100 µM (inactive) and the GI50 (NCI/ADR-RES) was > 100 µM (inactive). The GI50 (SN12C) was > 100 µM (inactive), the GI50 (RPMI-8226) was > 100 µM (inactive) and the GI50 (OVCAR-8) was > 100 µM (inactive). For the same molecule, the GI50 (COLO 205) was > 100 µM (inactive), the GI50 (UACC-62) was > 100 µM (inactive) and the GI50 (IGROV-1) was > 100 µM (inactive). The GI50 (OVCAR-5) was > 100 µM (inactive), the GI50 (OVCAR-4) was > 100 µM (inactive) and the GI50 (A549) was > 100 µM (inactive). The GI50 (NCI-H460) was > 100 µM (inactive), the GI50 (HCT-15) was over 100 µM and the GI50 (M14) was > 100 µM (inactive). The GI50 (DU-145) was > 100 µM (inactive), the GI50 (UACC-257) was > 100 µM (inactive) and the GI50 (MCF7) was > 100 µM (inactive). For the same molecule, the GI50 (RXF 393) was > 100 µM (inactive), the GI50 (CCRF-CEM) was > 100 µM (inactive) and the GI50 (SNB-19) was > 100 µM (inactive). The GI50 (Malme-3M) was > 100 µM (inactive), the GI50 (MDA-MB-435) was > 100 µM (inactive) and the GI50 (UO-31) was > 100 µM (inactive). For the same molecule, the GI50 (SF-295) was > 100 µM (inactive), the GI50 (HCC 2998) was > 100 µM (inactive) and the GI50 (SK-MEL-28) was > 100 µM (inactive). The GI50 (ACHN) was > 100 µM (inactive), the GI50 (MDA-MB-231) was > 100 µM (inactive) and the GI50 (HT-29) was > 100 µM (inactive). For the same molecule, the GI50 (NCI-H522) was > 100 µM (inactive), the GI50 (Hs-578T) was > 100 µM (inactive) and the GI50 (BT-549) was > 100 µM (inactive). For the same molecule, the GI50 (KM12) was > 100 µM (inactive), the GI50 (CAKI-1) was > 100 µM (inactive) and the GI50 (K562) was > 100 µM (inactive). The GI50 (786-0) was > 100 µM (inactive) and the GI50 (TK-10) was > 100 µM (inactive).
In the case of CC1OC(O)C(O)C(O)C1O (configuration not stated), the GI50 (T47D) is reported as > 100 µM (inactive), the GI50 (SF-268) is reported as > 100 µM (inactive) and the GI50 (SK-MEL-2) is reported as > 100 µM (inactive). The GI50 (NCI-H226) was > 100 µM (inactive), the GI50 (SK-OV-3) was > 100 µM (inactive) and the GI50 (NCI-H23) was > 100 µM (inactive). The GI50 (OVCAR-3) was > 100 µM (inactive), the GI50 (HCT-116) was > 100 µM (inactive) and the GI50 (EKVX) was > 100 µM (inactive). For the same molecule, the GI50 (SK-MEL-5) was > 100 µM (inactive), the GI50 (SF-539) was > 100 µM (inactive) and the GI50 (MDA-N) was > 100 µM (inactive). For the same molecule, the GI50 (PC-3) was > 100 µM (inactive), the GI50 (HOP-62) was > 100 µM (inactive) and the GI50 (U-251) was > 100 µM (inactive). The GI50 (SW-620) was > 100 µM (inactive), the GI50 (SNB-75) was > 100 µM (inactive) and the GI50 (NCI/ADR-RES) was > 100 µM (inactive). The GI50 (SN12C) was > 100 µM (inactive), the GI50 (A498) was > 100 µM (inactive) and the GI50 (RPMI-8226) was > 100 µM (inactive). The GI50 (OVCAR-8) was > 100 µM (inactive), the GI50 (COLO 205) was > 100 µM (inactive) and the GI50 (UACC-62) was > 100 µM (inactive). For the same molecule, the GI50 (IGROV-1) was > 100 µM (inactive), the GI50 (OVCAR-5) was > 100 µM (inactive) and the GI50 (OVCAR-4) was > 100 µM (inactive). For the same molecule, the GI50 (A549) was > 100 µM (inactive), the GI50 (NCI-H460) was > 100 µM (inactive) and the GI50 (HCT-15) was over 100 µM. The GI50 (M14) was > 100 µM (inactive), the GI50 (DU-145) was > 100 µM (inactive) and the GI50 (UACC-257) was > 100 µM (inactive). For the same molecule, the GI50 (LOX IMVI) was > 100 µM (inactive), the GI50 (MCF7) was > 100 µM (inactive) and the GI50 (RXF 393) was > 100 µM (inactive). The GI50 (SNB-19) was > 100 µM (inactive), the GI50 (Malme-3M) was > 100 µM (inactive) and the GI50 (MDA-MB-435) was > 100 µM (inactive). The GI50 (UO-31) was > 100 µM (inactive), the GI50 (SF-295) was > 100 µM (inactive) and the GI50 (HOP-92) was > 100 µM (inactive). For the same molecule, the GI50 (SK-MEL-28) was > 100 µM (inactive), the GI50 (ACHN) was > 100 µM (inactive) and the GI50 (MDA-MB-231) was > 100 µM (inactive). For the same molecule, the GI50 (HT-29) was > 100 µM (inactive), the GI50 (NCI-H522) was > 100 µM (inactive) and the GI50 (Hs-578T) was > 100 µM (inactive). For the same molecule, the GI50 (BT-549) was > 100 µM (inactive), the GI50 (KM12) was > 100 µM (inactive) and the GI50 (CAKI-1) was > 100 µM (inactive). The GI50 (K562) was > 100 µM (inactive), the GI50 (786-0) was > 100 µM (inactive) and the GI50 (TK-10) was > 100 µM (inactive).
